Experimental data reported in patent US8067613B2 (Abbott Laboratories, priority 2007, dated 2011).

Target: T1, Recombinant Human Poly(ADP-Ribose)Polymerase (PARP), PARP-1 (Homo sapiens, UniProt P09874)
T1 construct: purchased Trevigen (Gaithersburg, Md.); host or cells: E. coli
Assay: PARP1 assay (SPA/FlashPlate, [3H]-NAD+ incorporation into biotinylated histone H1)
Type: biochemical
Conditions: 1 nM PARP enzyme, 1.5 μM [3H]-NAD+, 200 nM biotinylated histone H1, 200 nM slDNA; Ki from inhibition curves at various substrate concentrations
Description: Nicotinamide[2,5′,8-3H]adenine dinucleotide and strepavidin SPA beads were obtained from Amersham Biosiences (UK). Recombinant Human Poly(ADP-Ribose)Polymerase (PARP), purified from E. coli and 6-Biotin-17-NAD^+, were obtained from Trevigen (Gaithersburg, Md.). NAD^+, histone, aminobenzamide, 3-aminobenzamide and Calf Thymus DNA (dcDNA) were obtained from Sigma (St. Louis, Mo.). Stem loop oligonucleotide containing MCAT sequence was obtained from Qiagen. The oligos were dissolved to 1 mM in annealing buffer containing 10 mM Tris HCl (pH 7.5), 1 mM EDTA, and 50 mM NaCl, incubated for 5 minutes at 95° C. and annealed at 45° C. for 45 minutes. Histone H1 (95% electrophoretically pure) was obtained from Roche (Indianapolis, Ind. Biotinylated histone H1 was prepared by treating the protein with Sulfo-NHS-LC-Biotin (Pierce Rockford, Ill.). The biotinylation reaction was conducted by slowly and intermittently adding 3 equivalents of 10 mM Sulfo-NHS-LC-Biotin to 100 μM Histone H1 in phosphate-buffered saline, pH 7.5, at 4° C. with gentle vortexing over 1 minute then incubation at 4° C. for 1 hour. Streptavidin coated (FlashPlate Plus) microplates were obtained from Perkin Elmer (Boston, Mass.).
PARP1 assay was conducted in PARP assay buffer containing 50 mM tris (pH 8.0), 1 mM DTT and 4 mM MgCl2. PARP reactions contained 1.5 μM [^3H]-NAD^+ (1.6 μCi/mmol), 200 nM biotinylated histone H1, 200 nM slDNA, and 1 nM PARP enzyme. Auto reactions utilizing SPA bead-based detection were carried out in 100 μL volumes in white 96 well plates.
Reactions were initiated by adding 50 μL of 2×NAD^+ substrate mixture to 50 μL of 2× enzyme mixture containing PARP and DNA. These reactions were terminated by the addition of 150 μL of 1.5 mM benzamide (1000-fold over its IC50). 170 μL of the stopped reaction mixtures were transferred to streptavidin Flash Plates, incubated for 1 hour and counted using a TopCount microplate scintillation counter. The Ki data (in nM) for representative compounds of this invention were determined from inhibition curves at various substrate concentrations and are shown in TABLE 1.

T1 sequence (P09874 whole entry): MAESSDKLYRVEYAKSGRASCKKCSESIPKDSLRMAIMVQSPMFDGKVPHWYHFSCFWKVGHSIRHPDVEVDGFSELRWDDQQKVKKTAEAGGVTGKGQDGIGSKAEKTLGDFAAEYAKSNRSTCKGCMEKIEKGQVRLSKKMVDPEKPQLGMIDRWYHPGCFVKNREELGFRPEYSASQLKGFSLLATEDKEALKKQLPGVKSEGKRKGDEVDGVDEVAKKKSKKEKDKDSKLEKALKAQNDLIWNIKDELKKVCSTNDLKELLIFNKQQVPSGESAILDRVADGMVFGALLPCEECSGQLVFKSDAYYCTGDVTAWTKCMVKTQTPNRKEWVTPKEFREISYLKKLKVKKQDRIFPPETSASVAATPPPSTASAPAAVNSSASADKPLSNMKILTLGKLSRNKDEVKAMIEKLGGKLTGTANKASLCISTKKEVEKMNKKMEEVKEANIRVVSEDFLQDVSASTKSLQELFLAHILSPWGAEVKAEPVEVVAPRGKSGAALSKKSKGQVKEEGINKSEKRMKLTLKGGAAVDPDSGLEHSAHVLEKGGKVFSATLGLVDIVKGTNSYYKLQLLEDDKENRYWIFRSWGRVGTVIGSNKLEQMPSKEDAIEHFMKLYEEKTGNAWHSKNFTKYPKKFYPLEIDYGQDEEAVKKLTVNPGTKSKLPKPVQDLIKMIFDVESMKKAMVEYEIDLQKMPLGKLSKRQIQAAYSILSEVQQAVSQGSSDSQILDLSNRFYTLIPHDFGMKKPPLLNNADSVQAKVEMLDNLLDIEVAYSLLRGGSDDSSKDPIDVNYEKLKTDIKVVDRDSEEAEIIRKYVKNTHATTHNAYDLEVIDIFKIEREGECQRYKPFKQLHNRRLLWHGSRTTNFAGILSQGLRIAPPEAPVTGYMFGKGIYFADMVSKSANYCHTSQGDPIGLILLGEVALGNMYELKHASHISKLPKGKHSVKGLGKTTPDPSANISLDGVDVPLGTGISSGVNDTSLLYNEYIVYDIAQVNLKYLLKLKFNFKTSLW

| Ki | Structure (SMILES) |
| --- | --- |
| 14.5 nM | NC(=O)c1cccc2[nH]c(-c3csc(-c4cccnc4)n3)nc12 [Example 1] |
| 11.8 nM | NC(=O)c1cccc2[nH]c(-c3csc(-c4ccncc4)n3)nc12 [Example 2] |
| 28 nM | Cc1nc(-c2cnccn2)sc1-c1nc2c(C(N)=O)cccc2[nH]1 [Example 3, 2-(4-methyl-2-pyrazin-2-yl-1,3-thiazol-5-yl)-H-benzimidazole-4-carboxamide] |
| 20.9 nM | NC(=O)c1cccc2[nH]c(-c3csc(-c4cccs4)n3)nc12 [Example 4, 2-(2-thien-2-yl-1,3-thiazol-4-yl)-1H-benzimidazole-4-carboxamide] |
| 32 nM | NC(=O)c1cccc2[nH]c(-c3csc(C4CCNCC4)n3)nc12 [Example 5, 2-(2-piperidin-4-yl-1,3-thiazol-4-yl)-1H-benzimidazole-4-carboxamide] |
| 45 nM | CN1CCC(c2nc(-c3nc4c(C(N)=O)cccc4[nH]3)cs2)CC1 [Example 6, 2-(2-(1-methylpiperidin-4-yl)-1,3-thiazol-4-yl)-1H-benzimidazole-4-carboxamide] |
| 61 nM | CC(C)N1CCC(c2nc(-c3nc4c(C(N)=O)cccc4[nH]3)cs2)CC1 [Example 7, 2-(2-(1-isopropylpiperidin-4-yl)-1,3-thiazol-4-yl)-1H-benzimidazole-4-carboxamide] |
| 50 nM | CCCN1CCC(c2nc(-c3nc4c(C(N)=O)cccc4[nH]3)cs2)CC1 [Example 8, 2-(2-(1-propylpiperidin-4-yl)-1,3-thiazol-4-yl)-1H-benzimidazole-4-carboxamide] |
| 44 nM | NC(=O)c1cccc2[nH]c(-c3csc(C4CCN(C5CCC5)CC4)n3)nc12 [Example 9, 2-(2-(1-cyclobutylpiperidin-4-yl)-1,3-thiazol-4-yl)-1H-benzimidazole-4-carboxamide] |
| 3.1 nM | NC(=O)c1cccc2[nH]c(-c3ccc(-c4ccccn4)s3)nc12 [Example 10, 2-(5-pyridin-2-ylthien-2-yl)-1H-benzimidazole-4-carboxamide] |
| 2 nM | NC(=O)c1cccc2[nH]c(-c3ccc(-c4cnccn4)s3)nc12 [Example 11, 2-(5-pyrazin-2-ylthien-2-yl)-1H-benzimidazole-4-carboxamide] |
| 9 nM | NC(=O)c1cccc2[nH]c(-c3ccc(-c4ncccn4)s3)nc12 [Example 12, 2-(5-pyrimidin-2-ylthien-2-yl)-1H-benzimidazole-4-carboxamide] |
| 2.4 nM | NC(=O)c1cccc2[nH]c(-c3ccc(-c4cccnc4)s3)nc12 [Example 13, 2-(5-pyridin-3-ylthien-2-yl)-1H-benzimidazole-4-carboxamide] |
| 3.2 nM | NC(=O)c1cccc2[nH]c(-c3ccc(-c4ccncc4)s3)nc12 [Example 14, 2-(5-pyridin-4-ylthien-2-yl)-1H-benzimidazole-4-carboxamide] |
| 5 nM | NC(=O)c1cccc2[nH]c(-c3ccc(-c4ccc[nH]4)s3)nc12 [Example 15, 2-(5-(1H-pyrrol-2-yl)thien-2-yl)-1H-benzimidazole-4-carboxamide] |
| 6 nM | NC(=O)c1cccc2[nH]c(-c3ccc([C@H]4CCCN4)s3)nc12 [Example 16, 2-(5-((2R)-pyrrolidin-2-yl)thien-2-yl)-1H-benzimidazole-4-carboxamide] |
| 10 nM | CN1CCC[C@@H]1c1ccc(-c2nc3c(C(N)=O)cccc3[nH]2)s1 [Example 17, 2-(5-((2R)-1-methylpyrrolidin-2-yl)thien-2-yl)-1H-benzimidazole-4-carboxamide] |
| 6 nM | CC(C)N1CCC[C@@H]1c1ccc(-c2nc3c(C(N)=O)cccc3[nH]2)s1 [Example 18, 2-(5-((2R)-1-isopropylpyrrolidin-2-yl)thien-2-yl)-1H-benzimidazole-4-carboxamide] |
| 8 nM | CCCN1CCC[C@@H]1c1ccc(-c2nc3c(C(N)=O)cccc3[nH]2)s1 [Example 19, 2-(5-((2R)-1-propylpyrrolidin-2-yl)thien-2-yl)-1H-benzimidazole-4-carboxamide] |

| Ki | Structure (SMILES) |
| --- | --- |
| 5 nM | NC(=O)c1cccc2[nH]c(-c3ccc([C@H]4CCCN4CC4CC4)s3)nc12 [Example 20, 2-(5-((2R)-1-(cyclopropylmethyl)pyrrolidin-2-yl)thien-2-yl)-1H-benzimidazole-4-carboxamide] |
| 4 nM | NC(=O)c1cccc2[nH]c(-c3ccc([C@H]4CCCN4C4CCC4)s3)nc12 [Example 21, 2-(5-((2R)-1-cyclobutylpyrrolidin-2-yl)thien-2-yl)-1H-benzimidazole-4-carboxamide] |
| 3 nM | NC(=O)c1cccc2[nH]c(-c3ccc([C@H]4CCCN4C4CCCC4)s3)nc12 [Example 22, 2-(5-((2R)-1-cyclopentylpyrrolidin-2-yl)thien-2-yl)-1H-benzimidazole-4-carboxamide] |
| 8 nM | NC(=O)c1cccc2[nH]c(-c3ccc([C@H]4CCCN4C4CCCCC4)s3)nc12 [Example 23, 2-(5-((2R)-1-cyclohexylpyrrolidin-2-yl)thien-2-yl)-1H-benzimidazole-4-carboxamide] |
| 12 nM | NC(=O)c1cccc2[nH]c(-c3ccc([C@H]4CCCN4C4CCOCC4)s3)nc12 [Example 24, 2-(5-((2R)-1-tetrahydro-2H-pyran-4-ylpyrrolidin-2-yl)thien-2-yl)-1H-benzimidazole-4-carboxamide] |
| 10 nM | NC(=O)c1cccc2[nH]c(-c3ccc([C@H]4CCCN4Cc4ccccn4)s3)nc12 [Example 25, 2-(5-((2R)-1-(pyridin-2-ylmethyl)pyrrolidin-2-yl)thien-2-yl)-1H-benzimidazole-4-carboxamide] |
| 6 nM | NC(=O)c1cccc2[nH]c(-c3ccc([C@H]4CCCN4Cc4ccncc4)s3)nc12 [Example 26, 2-(5-((2R)-1-(pyridin-4-ylmethyl)pyrrolidin-2-yl)thien-2-yl)-1H-benzimidazole-4-carboxamide] |
| 8 nM | CC(C)CN1CCC[C@@H]1c1ccc(-c2nc3c(C(N)=O)cccc3[nH]2)s1 [Example 27, 2-(5-((2R)-1-isobutylpyrrolidin-2-yl)thien-2-yl)-1H-benzimidazole-4-carboxamide] |
| 7 nM | NC(=O)c1cccc2[nH]c(-c3ccc(C4CCCCN4)s3)nc12 (centres unmarked) [Example 28, 2-(5-piperidin-2-ylthien-2-yl)-1H-benzimidazole-4-carboxamide] |
| 14 nM | CN1CCCCC1c1ccc(-c2nc3c(C(N)=O)cccc3[nH]2)s1 (centres unmarked) [Example 29, 2-(5-(1-methylpiperidin-2-yl)thien-2-yl)-1H-benzimidazole-4-carboxamide] |
| 16 nM | CCCN1CCCCC1c1ccc(-c2nc3c(C(N)=O)cccc3[nH]2)s1 (centres unmarked) [Example 30, 2-(5-(1-propylpiperidin-2-yl)thien-2-yl)-1H-benzimidazole-4-carboxamide] |
| 11 nM | NC(=O)c1cccc2[nH]c(-c3ccc(C4CCCCN4CC4CC4)s3)nc12 (centres unmarked) [Example 31, 2-(5-(1-(cyclopropylmethyl)piperidin-2-yl)thien-2-yl)-1H-benzimidazole-4-carboxamide] |
| 23 nM | NC(=O)c1cccc2[nH]c(-c3ccc(C4CCCCN4C4CCC4)s3)nc12 (centres unmarked) [Example 32, 2-(5-(1-cyclobutylpiperidin-2-yl)thien-2-yl)-1H-benzimidazole-4-carboxamide] |
| 21 nM | CC(C)CN1CCCCC1c1ccc(-c2nc3c(C(N)=O)cccc3[nH]2)s1 (centres unmarked) [Example 33, 2-(5-(1-isobutylpiperidin-2-yl)thien-2-yl)-1H-benzimidazole-4-carboxamide] |
| 7 nM | NC(=O)c1cccc2[nH]c(-c3ccc(C4CCCN4)s3)nc12 (centres unmarked) [Example 34, 2-(5-pyrrolidin-2-ylthien-2-yl)-1H-benzimidazole-4-carboxamide] |
| 7 nM | CN1CCCC1c1ccc(-c2nc3c(C(N)=O)cccc3[nH]2)s1 (centres unmarked) [Example 35, 2-(5-(1-methylpyrrolidin-2-yl)thien-2-yl)-1H-benzimidazole-4-carboxamide] |
| 5 nM | CC(C)N1CCCC1c1ccc(-c2nc3c(C(N)=O)cccc3[nH]2)s1 (centres unmarked) [Example 36, 2-(5-(1-isopropylpyrrolidin-2-yl)thien-2-yl)-1H-benzimidazole-4-carboxamide] |
| 7 nM | CCCN1CCCC1c1ccc(-c2nc3c(C(N)=O)cccc3[nH]2)s1 (centres unmarked) [Example 37, 2-(5-(1-propylpyrrolidin-2-yl)thien-2-yl)-1H-benzimidazole-4-carboxamide] |
| 6 nM | NC(=O)c1cccc2[nH]c(-c3ccc(C4CCCN4CC4CC4)s3)nc12 (centres unmarked) [Example 38, 2-(5-(1-(cyclopropylmethyl)pyrrolidin-2-yl)thien-2-yl)-1H-benzimidazole-4-carboxamide] |
